Columns and labels:
[1] = Absorption and emission spectra, fluorescence quantum efficiency in EtOH, PBS and lipid vesicles (MLV); format: physicochemical
Procedure: FIGS. 2A-2C are plots showing absorption and emission spectra of 2a, in comparison with ElectroFluor630, in various solvent environments: MLV, EtOH, and PBS. Multilamellar lipid vesicle suspension (MLV) was prepared by sonicating soybean phosphatidylcholine in PBS buffer (2 mg/mL) to mimic the cell membrane environment. The emission spectra in ethanol and PBS buffer were scaled 10 and 20 times respectively relative to the emission spectra in MLV. Excitation wavelength is 580 nm for emission spectra.
All chemicals were purchased from commercial sources (Sigma Aldrich, Acros, TCI America, Combi-Blocks, and others) and used without further purification. Column chromatography was generally performed on COMBIFLASH NextGen 300 using normal phase silica columns except that for some final dye products amine silica columns were used. Thin layer chromatography (TLC) was carried out on EM 60 F-254 plastic TLC plates. NMR spectra were recorded on Varian 400 MHz, 500 MHz, and 800 MHz instruments at the UConn Heath Structural Biology Facility. All spectra are referenced internally to TMS or residual solvent signals. Electrospray ionization (ESI) high-resolution mass spectra (HRMS) were obtained on a QStar Elite (AB Sciex) at the Department of Chemistry, University of Connecticut. UV/Vis absorption spectra were recorded on a UV-Visible spectrophotometer (Shimadzu, UV-1601PC) and fluorescence emission spectra on a Horiba Fluorolog spectrofluorometer (Horiba, Inc., Edison, NJ). Fluorescence quantum yield for dyes was determined by a relative method using Rhodamine 6G (excited at 480 nm, FQY=0.95 in EtOH) or cresyl violet (excited at 580 nm, FQY=0.54 in MeOH) as the references.
Absorbance and the fluorescence properties of the new VSDs were determined. The absorption and emission spectra for 2a, together with ElectroFluor630, in aqueous buffer (PBS), ethanol, and when intercalated in the membrane of lipid vesicles are shown in FIGS. 2A-C. […] This is particularly advantageous for fluorescence imaging because background fluorescence from unbound dye is negligible. Another characteristic of the hemicyanine VSDs that is preserved by 2a in FIGS. 2A-C is the large Stokes shift between the excitation and emission maxima. 125 nm for the membrane-bound dye. This is also a benefit for fluorescence detection and imaging, as the fluorescence can be readily filtered from scattered exciting light. The broad wavelength window afforded by the spectra is also an important benefit for the design of experiments with multiple fluorescent sensors. For comparative purposes, certain VSDs are shown below.
As expected, the spectra are largely insensitive to alkyl substitution. Table 1 also includes data for ElectroFluor630 (aka Di-4-ANEQ (F) PTEA) for comparison. The absorption maxima of 2a in ethanol (EtOH), aqueous buffer (PBS) and when bound to lipid membranes (multilamellar vesicles, MLV) are red shifted by 77 nm, 63 nm and 63 nm, respectively, relative to ElectroFluor630, which is isostructural to 2a. […] The absorption and emission spectra of 2a, 2b, and 2c are all shifted to the red by 50-65 nm relative to ElectroFluor630.

[2] = Voltage sensitivity on voltage-clamped hemispherical lipid bilayer; settings: long pass emission filter
Description: It is known that optimal voltage sensitivity can be obtained by measuring the compounds on a voltage-clamped hemispherical bilayer apparatus. The apparatus can include a patch-clamp amplifier, such as a HEKA EPC-8 patch-clamp amplifier. Measurements can be obtained by stepping the membrane potential between two different potentials for a set time lapse. such as, for example, −110 and −60 mV every 10 ms.
Testing VSDs in a voltage-clamped hemispherical lipid bilayer allows one to determine the sensitivity of the VSDs as a function of excitation wavelength. This system has a Teflon tube filled with KCl and is immersed in a KCl solution in a cuvette. A lipid bubble is blown at the tip of the tube and spontaneously forms a bilayer membrane. The VSD to be tested is introduced on one side of the bilayer, usually in the cuvette. Electrodes in the tube and in the cuvette allow the imposition of a voltage across the membrane and a tungsten lamp coupled to a monochromator allows excitation wavelength dependence of the fluorescence response to voltage steps to be determined. This screening approach has allows for the comparison of the efficacy of newly developed VSDs in a well-controlled, consistent manner and to also determine excitation and emission wavelengths with optimal.
Voltage sensitivities of 2a as a function of voltage is shown in FIG. 3A for excitation at 730 nm and 570 nm. The voltage response is linear over the range of −100 mV to +100 mV; 570 nm is slightly to the blue of the isosbestic point, accounting for the weak but inverted sensitivity at this wavelength. […] This opposite polarity at the blue and red edges underlies the ability to use electrochromic hemicyanine dyes for dual-wavelength ratio imaging. The precise location of the isosbestic point in the excitation wavelength depends on the emission filter used because the emission spectrum is also voltage dependent for hemicyanine dyes.
The magnitude and wavelengths of the optimal voltage sensitivities of all the VSDs on the voltage-clamped hemispherical bilayer are included in the third column of Table 1.

## CCCCCCN(CCCCCC)c1ccc2c(c1)OCC(/C=C/c1c(F)c[n+](CCC[N+](CC)(CC)CC)c3ccccc13)=C2.[Br-].[Br-] [2c]
[1]; in EtOH
  absorption maximum: 696 nm
[1]; in MLV (multilamellar lipid vesicles)
  absorption maximum: 599 nm
[1]; in PBS
  absorption maximum: 597 nm
[1]; in lipid vesicle suspensions
  Fluorescence quantum efficiency (FQE): 0.10
[1]; membrane-bound (MLV)
  emission maximum: 734 nm
[2]
  Ex (excitation wavelength of optimal voltage sensitivity): 730 nm
[2]; magnitude at optimal Ex/Em
  Voltage Sensitivity ΔF/F per 100 mV: 12%

— patent US20260048151A1, “HEMICYANINE PUSH-PULL DYES BASED ON CHROMENE ELECTRON DONORS” (UNIVERSITY OF CONNECTICUT, priority 2022, published 2026)
